Assay results published in patent US9290535B2, “Uridine-based gadolinium complex and MRI contrast agent including the same” (Korea University Researchand Business Foundation, priority 2011, dated 2016).
Several values for one entry are separate records, joined by “and”; a condition that tells them apart may be missing. Equal values may be shown once.

Legend:
[1] = Stability against transmetallation by Zn2+ (time evolution of proton relaxation rate); assay type: physicochemical
Description: The stability of the gadolinium complex against various biologically active metal ions is very important in in vivo applications. Among them, only Zn^2+ can displace significant amounts of the Gd^3+ ion as concentration of Zn^2+ in blood is relatively high (55-125 μM/L). The stability of the complexes LGd1-4 against transmetallation by Zn^2+ was studied employing the method of others.
The time evolution of the ^1H longitudinal relaxivity (R1) of a 2.5 mM gadolinium complex with 2.5 mM ZnCl2 in PBS solution was measured. Stability of the amphiphilic complex LGd2 of the present invention was greater than that of the non-aggregated complex LGd1 (FIG. 13). After 70 h, the relaxivities were retained 30, 50, 21, and 12% for LGd1-4, respectively.

[2] = Contrast-enhanced dynamic MRI in mice (CNR in liver and blood); assay type: in vivo, Balb/C mice; settings: for Peak CNR in liver: i.v. injection, 4.7 T
Description: The whole-body pharmacokinetics of T1 contrast agents can be measured by dynamic 2D or 3D MR imaging.
5-Week-old male Balb/C mice (n=3; OrientBio, Korea) were used for contrast-enhanced dynamic MRI. MRI was performed by using a 4.7 T MRI system (BioSpec 47/40; Bruker, Germany) with a quadrature birdcage RF coil (35 mm inner diameter) for signal transmission and reception.
Bolus of the contrast agents (0.1 mmol Gd/kg) was injected via tail vein. During MRI acquisition, the animals were anesthetized using 1-1.25% of inhalational isoflurane with O2:N2O (3:7) mixture.
To quantitatively measure signal intensity in region-of-interests (ROIs) as contrast-noise ratio (CNR), a reference of water sample (1 g/l CuSO4 in 8:2 of D2O:H2O) in a cylindrical tube (5 mm diameter) was used.
Dynamic 2D T1-weighted images were acquired using a spin-echo (SE) pulse sequence with the following parameters: TE/TR=10/400 ms, number of average=4, matrix size=256×256, slice thickness=1 mm, field of view=30×30 mm^2 (in axial slice) or 50×30 mm^2 (in coronal slice), and scan time=6 min 50 s).
Dynamic 3D T1-weighted images were acquired using a fast low angle shot gradient echo (FLASH) pulse sequence with parameters of TE/TR=2.4/7.5 ms, number of average=4, flip angle=30°, field of view=30×30×20 mm^3, matrix size=256×256×128, and scan time=12 min 17 s.

[3] = Dynamic light scattering (DLS) of micelles; assay type: physicochemical
[4] = target: T1, human serum albumin (HSA) (Homo sapiens, UniProt P02768); assay: Interaction with human serum albumin (relaxivity with HSA, binding constant); settings: 36° C.
T1 construct: purchased Sigma (Bornem, Belgium) A3782
Excerpt: It is well known that non-covalent interaction of the contrast agent with human serum albumin (HSA) increases its circulation time in blood and slows down tubling rate, leading to greater contrast enhancement for blood vessel imaging. In this example, effective interaction between the newly synthesized contrast agents (CAs) and human serum albumin (HSA) were investigated.
Human serum albumin (HSA; Product No. A3782) was purchased from Sigma (Bornem, Belgium) and was used without further purification. HSA binding experiment was performed with 50 μM of the complexes LGd1-5 in PBS solution depending on the concentration of HSA from 0 to 4 mM at 20 MHz and 36° C.
The increment of R1/R1^0 with increasing aliphatic chain length is: LGd2>LGd3>LGd4>LGd5.
Furthermore, to know the non-covalent binding strength between HSA and the complex, a binding constant (Ka) of (3.34±0.28)×10^3 M^−1 for the complex LGd3 was determined using the theoretical equation reported in the reference (D. T. Schuhle, J. Schatz, S. Laurent, L. V. Elst, R. N. Muller, M. C. A. Stuart, J. A. Peters, Chem. Eur. J. 2009, 15, 3290). The relaxivity for the non-aggregate form of LGd3 (r1^f) was measured to be 18.5 mM^−1s^−1 (below CMC=50 μM; FIG. 10), while for adduct LGd3.HSA (r1^c), 41.0 mM^−1s^−1 at 36° C. and 20 MHz (0.47 T) in PBS solution. […] As a result, the complex LGd3 of the present invention could be retained in vivo for a longer time.

[5] = pH dependence of water 1H relaxivity; assay type: physicochemical
Description: The relaxivities of the non-aggregated complex LGd1 and the most aggregated complex LGd3 (FIG. 7, average diameter […]) were investigated at various pH values (3.5-11) at 60 MHz (1.41 T) and 36° C.
The pH dependence of water ^1H-NMR relaxivity r1 was obtained at 60 MHz and 36° C. The complexes LGd1 and LGd3 were dissolved in previously prepared stock solutions (StockOptions pH Screen, Hampton Research, USA) at pH 3.5-11.

[6] = Relaxivity measurements (r1, r2) in PBS solution; assay type: physicochemical; settings: for Relaxivity r1: PBS solution, 36° C.
Description: The relaxation efficiency of the newly synthesized amphiphilic MRI contrast agents according to the present invention was determined by measuring longitudinal relaxivity (r1) and transverse relaxivity (r2) at 20 MHZ (0.47 T) and 60 MHz (1.41 T) in phosphate buffered saline (PBS) solution at 36° C.

[7] = Critical micelle concentration from 1/T1 versus concentration; assay type: physicochemical; settings: FIG. 10
Description: Longitudinal and transverse relaxivities, r1 and r2, were measured at 20 MHz (0.47 T) and 60 MHz (1.41 T) at 36° C. on NMR (mq20 and mq60, Bruker, Germany) and animal MRI (Biospec 47/40, Bruker, Germany) systems. T1 and T2 relaxation times were measured with inversion recovery and spin-echo pulse sequences, respectively. The critical micelle concentration (cmc) of the complex LGd3 was determined by measuring the proton relaxation rate 1/T1 as a function of complex LGd3 concentration.

[8] = clinically used commercial T1 contrast agents, comparison values; cited from earlier work

T1 sequence (P02768 25-609): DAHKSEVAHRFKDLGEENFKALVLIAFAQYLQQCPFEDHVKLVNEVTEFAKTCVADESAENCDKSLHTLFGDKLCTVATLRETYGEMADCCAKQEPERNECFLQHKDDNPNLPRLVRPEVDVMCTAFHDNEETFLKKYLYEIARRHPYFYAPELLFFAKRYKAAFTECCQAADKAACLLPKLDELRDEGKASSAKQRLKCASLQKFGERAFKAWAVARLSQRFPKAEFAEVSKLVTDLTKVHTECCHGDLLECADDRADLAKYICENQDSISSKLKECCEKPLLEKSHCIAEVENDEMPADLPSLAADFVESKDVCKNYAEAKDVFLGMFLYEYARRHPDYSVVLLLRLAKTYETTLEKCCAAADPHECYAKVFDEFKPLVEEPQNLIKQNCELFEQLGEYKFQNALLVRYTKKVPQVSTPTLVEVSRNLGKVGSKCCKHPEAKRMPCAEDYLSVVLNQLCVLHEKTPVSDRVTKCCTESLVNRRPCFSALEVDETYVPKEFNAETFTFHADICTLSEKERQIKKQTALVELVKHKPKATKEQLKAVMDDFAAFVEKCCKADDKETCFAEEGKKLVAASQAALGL

## CCCCCCCCCC(=O)O[C@@H]1[C@H](OC(=O)CCCCCCCCC)[C@@H](CN(CCN(CC(=O)[O-])CC(=O)[O-])CCN(CC(=O)[O-])CC(=O)[O-])O[C@H]1n1ccc(=O)[nH]c1=O.[Gd+3] [LGd3]
[1]; 2.5 mM complex with 2.5 mM ZnCl2 in PBS, after 70 h
  Relaxivity retained after transmetallation: 21%
[1]; Zn(II) ions, PBS, 20 MHz (0.47 T), 36° C., steady state in about 70 h
  y0 of fit y0+A×exp(−t/C1) of proton relaxation rate during transmetallation: 0.21
[2]; 0.1 mmol Gd/kg i.v.
  Duration of hyperintense CNR in liver (delayed hepatobiliary phase): at least 11 h
[2]; 0.1 mmol Gd/kg i.v., 2D MR images
  Time of bright contrast enhancement in gall bladder after injection: 2 to 4 h
[2]; 0.1 mmol Gd/kg i.v., CNR in liver from 1.67 to 4.0
  Peak and plateau enhancement in liver parenchyma: about 240%
[2]; 0.1 mmol Gd/kg, 3D dynamic images
  Liver parenchyma enhancement versus same dose of Gd-DTPA-BMA: more intense and prolonged enhancement
[2]; 0.1 mmol Gd/kg, 11 h after injection
  CNR in liver at 11 h above pre-value: about 60%
[2]; 30 min after injection, 0.1 mmol Gd/kg
  T1-contrasted enhancement in liver parenchyma, caudal vena cava and kidney: markedly seen
[2]; 9 h after injection
  SI in liver compared with pre-injection value: still relatively high
[2]; after maximum at about 2 h post-injection
  Duration of plateau-like constant CNR in liver: about 2 h
[2]
  Peak CNR in liver: 4.0
[3]; FIG. 7
  Average diameter (FIG. 7) as printed in nm: 51.2 nm
[3]; FIG. 12, pH 10.5
  DLS PDI of micelles at alkaline pH: 2.01
[3]; FIGS. 6 to 9
  DLS PDI of micelles: 1.46
[3]; FIGS. 6 to 9, pH 7.4
  DLS average size of micelles: 51.16 nm and 51.15 nm
[4]; 50 μM complex, HSA below 1.0 mM, 20 MHz
  Effective interaction with HSA (R1/R1^0): high
[4]; 20 MHz (0.47 T), PBS solution with 0.65 mM HSA
  Relaxivity r1^a (with HSA): 41.0 mM⁻¹ s⁻¹ and 41.00 mM⁻¹ s⁻¹
[4]; adduct LGd3.HSA, 20 MHz (0.47 T), PBS
  Relaxivity of adduct with HSA (r1^c): 41.0 mM⁻¹ s⁻¹
[4]; below CMC, 20 MHz (0.47 T), PBS
  Relaxivity of the non-aggregate form (r1^f): 18.5 mM⁻¹ s⁻¹
[4]; non-covalent binding, theoretical equation, 20 MHz, PBS
  Binding constant (Ka) with HSA: (3.34±0.28)×10^3 M^−1
[5]; 60 MHz, 36° C.
  Relaxivity variation Δr1 between pH 6 and 7.5: ~2.9
  Relaxivity variation Δr1 from pH 8 to pH 11: ~10.3
[5]; pH 8, 60 MHz (1.41 T), 36° C.
  Relaxivity at pH 8: about 24.5 mM^−1s^−1
[5]; pH 10.5
  Relaxivity at pH 10.5: about 17.3 mM^−1s^−1
[5]; pH 11, 60 MHz (1.41 T), 36° C.
  Relaxivity at pH 11: 14.2 mM^−1s^−1
[6]; 20 MHz (0.47 T)
  Relaxivity r1: 30.3 mM⁻¹ s⁻¹ and 30.30 mM⁻¹ s⁻¹
[6]; 60 MHz (1.41 T)
  Relaxivity r1: 23.4 mM⁻¹ s⁻¹ and 23.40 mM⁻¹ s⁻¹
[6]; PBS, 0.47 T and 1.41 T
  Relaxivity increase compared to Magnevist/Omniscan (Gd-DTPA, Gd-DTPA-BMA): 6 fold
[7]; 20 MHz, 36° C.
  Critical micelle concentration (CMC): about 0.05 mM
[7]
  Critical micelle concentration (CMC): 50 µM

## CNC(=O)CN(CCN(CCN(CC(=O)[O-])CC(=O)NC)CC(=O)[O-])CC(=O)[O-].[Gd+3] [Omniscan ®, Gd-DTPA-BMA, reference compound]
[2]
  Peak CNR in liver: about 2.8
[6]; 20 MHz (0.47 T)
  Relaxivity r1: 4.41 mM⁻¹ s⁻¹
[6]; 60 MHz (1.41 T)
  Relaxivity r1: 3.68 mM⁻¹ s⁻¹
[8]
  Relaxivity retained after transmetallation (commercial contrast agents): 10%

## CNC[C@H](O)[C@@H](O)[C@H](O)[C@H](O)CO.CNC[C@H](O)[C@@H](O)[C@H](O)[C@H](O)CO.O=C([O-])CN(CCN(CC(=O)[O-])CC(=O)O)CCN(CC(=O)[O-])CC(=O)O.[Gd+3] [Magnevist ®, Gd-DTPA, reference compound]
[6]; 20 MHz (0.47 T)
  Relaxivity r1: 4.70 mM⁻¹ s⁻¹
[6]; 60 MHz (1.41 T)
  Relaxivity r1: 3.81 mM⁻¹ s⁻¹
[8]
  Relaxivity retained after transmetallation (commercial contrast agents): 50%
